Source: PubChem BioAssay AID2060489 (Molecular Pharmacology Branch, DTP, NCI, 2025)

Tested on: 922993-354-T-J3-PDC complex spheroids, viability
Assay: Anticancer human tumor 922993-354-T-J3-PDC patient-derived endometrial carcinoma cell line growth inhibition [GQUAD]
Conditions: for IC50: curve of first compound; for viability, T/C: stronger effect = lower value
Text: DNA G-quadruplex Stabilizer Agents in Combinations in Complex Spheroids
A high-throughput screen of multi-cell type tumor spheroids was designed to identify active combinations of DNA G-quadruplex stabilizer agents and targeted small molecules. Complex spheroids include a stromal component modeled by human endothelial cells (HUVEC) and fibroblasts modeled by human mesenchymal stem cells (MSCs). The concentration ranges selected for each drug and investigational agent were based upon clinically achievable concentrations if the clinical Cmax of the agent was known.
Compounds. The drugs and investigational agents: pidnarulex (CX-5461; NSC782164), APTO-253 (NSC789042), BRACO-19 (NSC847499), peposertib (NSC802822), ceralasertib (NSC780249), elimusertib (NSC800525), camonsertib (NSC841442), AZD-1390 (NSC803789), olaparib (NSC753686), talazoparib (NSC767125), ART-558 (NSC835418), sotorasib (NSC818433), MRTX-1133 (NSC836407), SN-38 (NSC673596), topotecan (NSC609699), etoposide (NSC141540), doxorubicin (NSC123127), gemcitabine (NSC613327), 5-fluorouracil (NSC19893), paclitaxel (NSC125973), vemurafenib (NSC761431), panobinostat (NSC761190), R-306465 (JNJ-16241199; NSC773264), adavosertib (NSC754352), TP-3654 (NSC805149), carboplatin (NSC241240), KSQ-4279 (NSC840948), and staurosporine (NSC755774) were obtained from the National Cancer Institute (NCI) Developmental Therapeutics Program Chemical Repository (34). The FDA-approved anticancer drug set is available from the NCI Developmental Therapeutics Program. […] The stock solutions were prepared in dimethyl sulfoxide (DMSO, Sigma-Aldrich, St. Louis, MO, cat. D2650) at 800-fold the tested concentration and stored at -70 degrees C prior to their use. All drugs and investigational agents were tested over a range starting from a high concentration at or near the clinical Cmax and decreasing in half-log increments. If the clinical Cmax for an agent had not been determined, the highest concentration tested was 10 microM.
2.3 Cell Culture. All cells were maintained in an incubator at 37 degrees C and 5% CO2 with 95% humidity. The PDC lines were cultured according to standard operating procedures established by the NCI PDMR. All PDCs were thawed and cultured in Matrigel-coated flasks prepared with a working solution of 1X Ham's F-12 nutrient mix, without supplementation (Invitrogen, cat. 11765054), 100 U/mL penicillin-streptomycin (Invitrogen, cat. 15140122), and 2.5% Matrigel (Corning Inc., cat. 354248) for the first three passages. The 857933-349-R-J2-PDC line was cultured in 6C/Colon 1B media, which includes advanced DMEM/F-12 (Thermo Fisher Scientific, cat. 12634028), 10 mM HEPES (Thermo Fisher Scientific, cat. 15630080), 1X GlutaMAX supplement (Thermo Fisher Scientific, cat. 35050061), 0.1 mg/mL primocin (InvivoGen, cat. ant-pm-2), 10% defined fetal bovine serum, heat inactivated (HyClone Laboratories Inc., cat. SH30070.03HI), 50% L-WRN conditioned media (ATCC, cat. CRL-3276), 1.25 mM N-Acetyl-L-cysteine (Sigma-Aldrich, cat. A9165), 10 mM nicotinamide (Sigma-Aldrich, cat. N0636), 1X B-27 supplement (Thermo Fisher Scientific, cat. 17504044), 1X N-2 supplement (Thermo Fisher Scientific, cat. 17502048), 10 microM Y-27632 dihydrochloride (Tocris Bioscience, cat. 1254), and 50 ng/mL human EGF recombinant protein (Thermo Fisher Scientific, cat. PHG0311). The 485176-168-R4-J1-PDC line was cultured in Panc media, which includes all 6C/Colon 1B media components plus 100 ng/mL human FGF-10 (Thermo Fisher Scientific, cat. 100-26), 500 nM SB-431542 (Selleckchem, cat. S1067), and gastrin (Tocris, cat. 3006).
[…]

[1] = second compound 0.0316 µM, first compound 0.0316 µM
[2] = second compound 0.0316 µM, first compound 0.1 µM
[3] = second compound 0.0316 µM, first compound 0.316 µM
[4] = second compound 0.0316 µM, first compound 1 µM
[5] = second compound 0.0316 µM, first compound 3.16 µM
[6] = second compound 0.0316 µM, first compound 10 µM
[7] = second compound 0.1 µM, first compound 0.0316 µM
[8] = second compound 0.1 µM, first compound 0.1 µM
[9] = second compound 0.1 µM, first compound 0.316 µM
[10] = second compound 0.1 µM, first compound 1 µM
[11] = second compound 0.1 µM, first compound 3.16 µM
[12] = second compound 0.1 µM, first compound 10 µM
[13] = second compound 0.316 µM, first compound 0.0316 µM
[14] = second compound 0.316 µM, first compound 0.1 µM
[15] = second compound 0.316 µM, first compound 0.316 µM
[16] = second compound 0.316 µM, first compound 1 µM
[17] = second compound 0.316 µM, first compound 3.16 µM
[18] = second compound 0.316 µM, first compound 10 µM
[19] = second compound 1 µM, first compound 0.0316 µM
[20] = second compound 1 µM, first compound 0.1 µM
[21] = second compound 1 µM, first compound 0.316 µM
[22] = second compound 1 µM, first compound 1 µM
[23] = second compound 1 µM, first compound 3.16 µM
[24] = second compound 1 µM, first compound 10 µM
[25] = second compound 3.16 µM, first compound 0.0316 µM
[26] = second compound 3.16 µM, first compound 0.1 µM
[27] = second compound 3.16 µM, first compound 0.316 µM
[28] = second compound 3.16 µM, first compound 1 µM
[29] = second compound 3.16 µM, first compound 3.16 µM
[30] = second compound 3.16 µM, first compound 10 µM
[31] = second compound 10 µM, first compound 0.0316 µM
[32] = second compound 10 µM, first compound 0.1 µM
[33] = second compound 10 µM, first compound 0.316 µM
[34] = second compound 10 µM, first compound 1 µM
[35] = second compound 10 µM, first compound 3.16 µM
[36] = second compound 10 µM, first compound 10 µM
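Also: spheroids exposed to compounds for seven days.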
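For viability, T/C in this document: 100% = DMSO vehicle control viability.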

Compound `CC1COCCN1c1cc(C2(O)CC3CCC(C2)O3)c2cnn(-c3ccn[nH]3)c2n1` (stereo unspecified) + CN(C)c1ccc(Nc2c3ccc(NC(=O)CCN4CCCC4)cc3nc3cc(NC(=O)CCN4CCCC4)ccc23)cc1 has an IC50 (second compound 0.0316 µM) of 0.456 µM, an IC50 (second compound 0.1 µM) of 0.545 µM and an IC50 (second compound 0.316 µM) of 0.483 µM. For the same compound, the IC50 (second compound 1 µM) was 0.784 µM, the IC50 (second compound 3.16 µM) was 0.52 µM and the IC50 (second compound 10 µM) was 0.906 µM. The viability, T/C [1] was 124%, the viability, T/C [2] was 78.8% and the viability, T/C [3] was 67%. It also gave a viability, T/C [4] of 29.4%, a viability, T/C [5] of 23.3% and a viability, T/C [6] of 18.4%. It also gave a viability, T/C [7] of 82.8%, a viability, T/C [8] of 82.2% and a viability, T/C [9] of 68.2%. For the same compound, the viability, T/C [10] was 29.8%, the viability, T/C [11] was 21.3% and the viability, T/C [12] was 22%. The viability, T/C [13] was 112%, the viability, T/C [14] was 86.1% and the viability, T/C [15] was 66.4%. The viability, T/C [16] was 27.3%, the viability, T/C [17] was 22.1% and the viability, T/C [18] was 19.7%. For the same compound, the viability, T/C [19] was 98.6%, the viability, T/C [20] was 102% and the viability, T/C [21] was 70.5%. It also gave a viability, T/C [22] of 47.3%, a viability, T/C [23] of 20.2% and a viability, T/C [24] of 19.7%. The viability, T/C [25] was 127%, the viability, T/C [26] was 79.7% and the viability, T/C [27] was 65.5%. It also gave a viability, T/C [28] of 39.4%, a viability, T/C [29] of 21.5% and a viability, T/C [30] of 25.4%. For the same compound, the viability, T/C [31] was 115%, the viability, T/C [32] was 113% and the viability, T/C [33] was 86.4%. The viability, T/C [34] was 48.8%, the viability, T/C [35] was 21.7% and the viability, T/C [36] was 25.2%.

With `CC1COCCN1c1cc(C2(S(C)(=N)=O)CC2)nc(-c2ccnc3[nH]ccc23)n1` (stereo unspecified) + CN(C)c1ccc(Nc2c3ccc(NC(=O)CCN4CCCC4)cc3nc3cc(NC(=O)CCN4CCCC4)ccc23)cc1 the IC50 (second compound 0.0316 µM) was greater than 10 µM, the IC50 (second compound 0.1 µM) was greater than 10 µM and the IC50 (second compound 0.316 µM) was greater than 10 µM. For the same compound, the IC50 (second compound 1 µM) was greater than 10 µM, the IC50 (second compound 3.16 µM) was greater than 10 µM and the IC50 (second compound 10 µM) was greater than 10 µM. For the same compound, the viability, T/C [1] was 110%, the viability, T/C [2] was 124% and the viability, T/C [3] was 127%. For the same compound, the viability, T/C [4] was 87.1%, the viability, T/C [5] was 117% and the viability, T/C [6] was 70.4%. The viability, T/C [7] was 119%, the viability, T/C [8] was 121% and the viability, T/C [9] was 96.4%. For the same compound, the viability, T/C [10] was 85.2%, the viability, T/C [11] was 92.1% and the viability, T/C [12] was 68.4%. It also gave a viability, T/C [13] of 102%, a viability, T/C [14] of 102% and a viability, T/C [15] of 89%. For the same compound, the viability, T/C [16] was 111%, the viability, T/C [17] was 89.5% and the viability, T/C [18] was 64.6%. The viability, T/C [19] was 114%, the viability, T/C [20] was 116% and the viability, T/C [21] was 99.9%. It also gave a viability, T/C [22] of 96.5%, a viability, T/C [23] of 121% and a viability, T/C [24] of 76.2%. The viability, T/C [25] was 102%, the viability, T/C [26] was 128% and the viability, T/C [27] was 105%. For the same compound, the viability, T/C [28] was 115%, the viability, T/C [29] was 108% and the viability, T/C [30] was 79.3%. It also gave a viability, T/C [31] of 121%, a viability, T/C [32] of 140% and a viability, T/C [33] of 130%. The viability, T/C [34] was 114%, the viability, T/C [35] was 109% and the viability, T/C [36] was 93.4%.

`COc1ccc([C@@H](O)c2cc(-c3ncnc4cc(N5CCOCC5)ccc34)c(F)cc2Cl)nn1` + CN(C)c1ccc(Nc2c3ccc(NC(=O)CCN4CCCC4)cc3nc3cc(NC(=O)CCN4CCCC4)ccc23)cc1 was tested, and the IC50 (second compound 0.0316 µM) was greater than 10 µM, the IC50 (second compound 0.1 µM) was greater than 10 µM and the IC50 (second compound 0.316 µM) was greater than 10 µM. It also gave an IC50 (second compound 1 µM) greater than 10 µM, an IC50 (second compound 3.16 µM) greater than 10 µM and an IC50 (second compound 10 µM) greater than 10 µM. For the same compound, the viability, T/C [1] was 101%, the viability, T/C [2] was 111% and the viability, T/C [3] was 103%. It also gave a viability, T/C [4] of 111%, a viability, T/C [5] of 104% and a viability, T/C [6] of 82.3%. The viability, T/C [7] was 105%, the viability, T/C [8] was 99.5% and the viability, T/C [9] was 89.7%. The viability, T/C [10] was 88.2%, the viability, T/C [11] was 84.8% and the viability, T/C [12] was 71.8%. For the same compound, the viability, T/C [13] was 76.6%, the viability, T/C [14] was 103% and the viability, T/C [15] was 83.6%. The viability, T/C [16] was 79%, the viability, T/C [17] was 86.9% and the viability, T/C [18] was 71.4%. It also gave a viability, T/C [19] of 119%, a viability, T/C [20] of 106% and a viability, T/C [21] of 104%. The viability, T/C [22] was 101%, the viability, T/C [23] was 88.4% and the viability, T/C [24] was 79.2%. For the same compound, the viability, T/C [25] was 81.5%, the viability, T/C [26] was 101% and the viability, T/C [27] was 120%. The viability, T/C [28] was 105%, the viability, T/C [29] was 97.7% and the viability, T/C [30] was 75.1%. It also gave a viability, T/C [31] of 105%, a viability, T/C [32] of 110% and a viability, T/C [33] of 134%. It also gave a viability, T/C [34] of 88.6%, a viability, T/C [35] of 109% and a viability, T/C [36] of 83.1%.
